Experiments:
Format in all cases: cell-based
[1] = target: T1, monocarboxylate transporter (MCT1) (Homo sapiens, UniProt P53985); experiment: Inhibition of MCT1 uptake of known substrate 2-thiophene glyoxylate; parameters: expressed in transfected cells
T1 sequence (P53985 1-500): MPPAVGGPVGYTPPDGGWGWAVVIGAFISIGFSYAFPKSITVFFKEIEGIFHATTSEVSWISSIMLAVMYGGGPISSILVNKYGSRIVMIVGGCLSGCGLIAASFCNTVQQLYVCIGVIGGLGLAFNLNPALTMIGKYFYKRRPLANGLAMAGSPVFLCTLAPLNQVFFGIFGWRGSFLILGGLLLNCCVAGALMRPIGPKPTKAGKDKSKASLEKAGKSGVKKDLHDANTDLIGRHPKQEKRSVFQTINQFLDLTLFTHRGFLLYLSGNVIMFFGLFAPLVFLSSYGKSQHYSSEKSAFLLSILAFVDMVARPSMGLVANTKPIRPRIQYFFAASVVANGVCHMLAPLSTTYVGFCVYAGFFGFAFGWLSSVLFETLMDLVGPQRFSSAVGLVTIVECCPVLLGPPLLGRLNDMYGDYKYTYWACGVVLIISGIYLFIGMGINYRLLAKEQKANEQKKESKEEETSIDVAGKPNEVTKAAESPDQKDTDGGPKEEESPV
Protocol: FIG. 4(c) is a line graph showing concentration-inhibition curves for the inhibition of uptake of the known substrate 2-thiophene glyoxylate (500 μM) for MCT1. DMSO (0.5%) was the solvent control (SC) and the known inhibitor phloretin (500 μM) was the positive control (PC).
FIG. 4(d) is a line graph showing concentration-inhibition curves for the inhibition of uptake of the known substrate 2-thiophene glyoxylate (500 μM) for MCT1. DMSO (0.5%) was the solvent control (SC) and the known inhibitor phloretin (500 μM) was the positive control (PC).
The known probe substrates used as positive controls are 3 μM chlorothiazide for OAT1, 2 μM estrone-3-sulfate for OAT3, 10 μM gabapentin for LAT1, 50 μM Gly-Sar for PepT1, 500 μM thiophene-2-glyoxylic acid for MCT1.
The IC50 value for the test item is determined by fitting the Hill equation in the following form:
where A % is the percent activity remaining (the mean cellular uptake observed in the solvent control sample set to 100% and the mean cellular uptake observed in the presence of the positive control inhibitor set to 0%), Top and Bottom are the upper and lower plateau of A %. [I] is the inhibitor concentration and IC50 is the inhibitor concentration where the remaining activity is at the midpoint between the Top and Bottom.

[2] = target: T2, OAT3 (SLC22A8) (Homo sapiens, UniProt Q8TCC7); experiment: Inhibition of OAT3 uptake of known substrate estrone-3-sulfate; details: probe substrate estrone-3-sulfate 2 μM
T2 construct: host or cells: HEK-293
T2 sequence (Q8TCC7 1-542): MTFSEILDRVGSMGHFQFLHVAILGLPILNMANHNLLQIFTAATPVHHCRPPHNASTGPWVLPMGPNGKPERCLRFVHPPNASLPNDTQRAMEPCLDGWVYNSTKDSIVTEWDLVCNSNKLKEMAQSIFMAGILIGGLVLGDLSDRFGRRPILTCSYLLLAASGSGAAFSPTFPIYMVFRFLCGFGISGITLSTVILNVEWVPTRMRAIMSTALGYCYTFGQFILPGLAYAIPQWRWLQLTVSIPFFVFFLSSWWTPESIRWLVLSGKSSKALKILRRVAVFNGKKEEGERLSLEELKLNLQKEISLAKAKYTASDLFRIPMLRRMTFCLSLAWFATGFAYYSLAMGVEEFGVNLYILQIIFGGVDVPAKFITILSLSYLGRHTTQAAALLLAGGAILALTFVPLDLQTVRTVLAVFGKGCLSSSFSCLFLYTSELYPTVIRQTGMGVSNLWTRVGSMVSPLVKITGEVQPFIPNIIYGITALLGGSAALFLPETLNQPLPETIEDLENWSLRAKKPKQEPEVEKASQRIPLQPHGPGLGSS
Protocol: (§1) DMSO (0.5%) was the solvent control (SC) and the known inhibitor diclofenac (100 μM) was the positive control (PC). Data were fit to either the Michalis-Menten equation for uptake or the Hill equation for inhibition using the solvent control to define the top and the positive control inhibitor to define the bottom. Symbols represent the mean±SEM, n=3.
(§2) Human OAT1 (SLC22A6) and OAT3 (SLC22A8) overexpressing HEK-293 cells and control cells without transfected transporter (Corning® TransportoCells™) are plated to 24-well plates and cellular uptake of 10 to 100 μg/mL of a Compound of the Disclosure is measured in the absence and presence of transporter inhibitors. Uptake of a Compound of the Disclosure into control cells is measured only without chemical inhibitors. […] Cells are grown in DMEM (Gibco 4196, high glucose, without sodium pyruvate) supplemented with MEM non-essential amino acids and 10% fetal bovine serum. Cells are re-fed with fresh medium after attachment (4-6 hours post-seeding). Cell are plated at a density of 4×10^5/well in 24-well plates coated with poly-D-lysine. Transporter assays are conducted in 400 μL of HBSS supplemented with 10 mM Hepes, pH 7.4 […]
The IC50 value for the test item is determined by fitting the Hill equation in the following form: […]

[3] = target: T2, OAT3 (SLC22A8); experiment: OAT3 transporter-mediated cellular uptake (substrate test); details: uptake 5 min, 37° C.
Protocol: as §1, §2
Enzyme kinetic data for uptake and metabolism of a Compound of the Disclosure is analysed by fitting the Michaelis-Menten equation to the data. […]

Ki ([1]; assuming competitive inhibition, read-out: affinity (Ki) for MCT1, Cheng-Prusoff equation): 4.3 mM
IC50 ([1]; probe substrate 2-thiophene glyoxylate 500 μM): 15 mM
IC50 [2]: 0.7 mM
substrate of OAT3 (uptake) [3]: substrate
SMILES: CC(=O)N[C@@H](CC(C)C)C(=O)O [N-acetyl-L-leucine]

Reference: patent US20240208895A1, “BRANCHED-CHAIN AMINO ACID DERIVATIVES TO TREAT DISEASE” (INTRABIO LTD., priority 2021, published 2024)
